Experimental data as given in the supplement of paper PMC10307832.

compound: O=C(Nc1cc(C(F)(F)F)cc(C(F)(F)F)c1)c1cc(Cl)ccc1O [IMD-0354] + O=C(c1cc(Cc2n[nH]c(=O)c3ccccc23)ccc1F)N1CCN(C(=O)C2CC2)CC1 [Olaparib] (partner 8 µM); assay: relative viability (nuclei count vs DMSO), 5 days (fraction); higher = more cells survive; settings: first compound 0.4 µM
Method in brief: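 Lung cancer cell lines in 1536-well plates got either a single drug or a fixed anchor-drug dose together with five library-drug doses (not always all listed) in √10 steps, by pin tool, on the day after seeding. Nuclei were counted after 5 days, and relative viability is the treated-to-vehicle ratio of nuclei counts. Values are medians of duplicate plates.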

Cell Line	relative viability
NCI-H661	0.356
NCI-H1734	0.465
NCI-H460	0.363
NCI-H2347	0.49
SW 1573	0.264
NCI-H1793	0.399
201T	0.532
NCI-H1915	0.235
HCC-827	0.482
LXF-289	0.783
NCI-H23	0.24
NCI-H1299	0.505
NCI-H647	0.292
CAL-12T	0.492
NCI-H1651	0.177
EPLC-272H	0.599
NCI-H2228	0.482
NCI-H1792	0.236
NCI-H1355	0.452
NCI-H3122	0.417
NCI-H1437	0.376
NCI-H1755	0.707
NCI-H2023	0.315
HCC-15	0.474
NCI-H1944	0.3
PC-14	0.269

same assay, conditions: first compound 1.265 µM

Cell Line	relative viability
NCI-H522	0.46
NCI-H727	0.524
NCI-H1650	0.325
EBC-1	0.183
NCI-H1703	0.108
NCI-H1993	0.651
SK-LU-1	0.265
NCI-H838	0.253
LCLC-103H	0.45
NCI-H520	0.146
NCI-H2126	0.512
EMC-BAC-2	0.226
NCI-H2085	0.412
Calu-6	0.138
HCC-366	0.053
NCI-H1666	0.703
NCI-H596	0.818
NCI-H1395	0.361
NCI-H2087	0.0984

Cell Line	relative viability
NCI-H2342	0.38
LK-2	0.526
H3255	0.37
COR-L23	0.104
COR-L 105	0.562
IA-LM	0.161
LOU-NH91	0.147
ChaGo-K-1	0.241
NCI-H358	0.14
NCI-H2405	0.258
HOP-62	0.15
HCC-44	0.789
A549	0.0898
SW 900	0.212
LU99A	0.176
BEN	0.437
HARA	0.167
NCI-H1648	0.677
HCC-78	1.04

Cell Line	relative viability
NCI-H322M	0.407
LCLC-97TM1	0.154
NCI-H2009	0.366
A-427	0.128
NCI-H441	0.186
NCI-H661	0.256
NCI-H1734	0.421
NCI-H460	0.0469
NCI-H2347	0.377
SW 1573	0.0858
NCI-H1793	0.213
201T	0.849
NCI-H1915	0.175
HCC-827	0.372
LXF-289	0.418
NCI-H23	0.132
NCI-H1299	0.193
NCI-H647	0.0684
